Legend:
Assay in all cases: relative viability (nuclei count vs DMSO), 5 days (fraction); higher = more cells survive
[1] = compound: CC1=CC(=CC=C1)NC2=NC(=CS2)C3=CC=NC=C3 + COc1cc2c(Oc3ccc(NC(=O)C4(C(=O)Nc5ccc(F)cc5)CC4)cc3F)ccnc2cc1OCCCN1CCOCC1 [Foretinib] (partner 0.25 µM)
Summary of the method: (§1)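 Relative viability is defined as nuclei in treated wells over nuclei in vehicle wells. Duplicate plates were run and medians reported. Lung cancer cell lines in 1536-well plates were dosed by pin tool one day after seeding, with one drug or with a fixed anchor-drug dose plus five library-drug doses (not always all listed) in √10 steps, and nuclei were counted after 5 days.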

[2] = compound: CC1=CC(=CC=C1)NC2=NC(=CS2)C3=CC=NC=C3 + CS(=O)(=O)N1CCN(Cc2cc3nc(-c4cccc5[nH]ncc45)nc(N4CCOCC4)c3s2)CC1 [Pictilisib] (partner 1 µM)
Summary of the method: as §1

Masitinib + Tozasertib = compound: Cc1ccc(NC(=O)c2ccc(CN3CCN(C)CC3)cc2)cc1Nc1nc(-c2cccnc2)cs1 [Masitinib] + Cc1cc(Nc2cc(N3CCN(C)CC3)nc(Sc3ccc(NC(=O)C4CC4)cc3)n2)n[nH]1 [Tozasertib] (partner 0.1 µM)
Summary of the method: as §1

Masitinib + Olaparib = compound: Cc1ccc(NC(=O)c2ccc(CN3CCN(C)CC3)cc2)cc1Nc1nc(-c2cccnc2)cs1 [Masitinib] + O=C(c1cc(Cc2n[nH]c(=O)c3ccccc23)ccc1F)N1CCN(C(=O)C2CC2)CC1 [Olaparib] (partner 8 µM)
Summary of the method: as §1

| Cell Line | relative viability ([1]; first compound 0.08 µM) | relative viability ([1]; first compound 0.253 µM) | relative viability ([1]; first compound 0.8 µM) | relative viability ([1]; first compound 2.53 µM) | relative viability ([1]; first compound 8 µM) | relative viability ([2]; first compound 0.08 µM) | relative viability ([2]; first compound 0.253 µM) | relative viability ([2]; first compound 0.8 µM) | relative viability ([2]; first compound 2.53 µM) | relative viability ([2]; first compound 8 µM) | relative viability (Masitinib + Tozasertib; first compound 0.01 µM) | relative viability (Masitinib + Tozasertib; first compound 0.03162 µM) | relative viability (Masitinib + Tozasertib; first compound 0.1 µM) | relative viability (Masitinib + Tozasertib; first compound 0.3162 µM) | relative viability (Masitinib + Tozasertib; first compound 1 µM) | relative viability (Masitinib + Olaparib; first compound 0.01 µM) | relative viability (Masitinib + Olaparib; first compound 0.03162 µM) | relative viability (Masitinib + Olaparib; first compound 0.1 µM) | relative viability (Masitinib + Olaparib; first compound 0.3162 µM) | relative viability (Masitinib + Olaparib; first compound 1 µM) |
| --- | --- | --- | --- | --- | --- | --- | --- | --- | --- | --- | --- | --- | --- | --- | --- | --- | --- | --- | --- | --- |
| LOU-NH91 | 0.794 | 0.853 | 0.807 | 0.896 | 0.903 | 0.482 | 0.382 | 0.464 | 0.44 | 0.468 | 0.641 | 0.666 | 0.728 | 0.588 | 0.626 | 0.883 | 0.917 | 0.902 | 0.869 | 0.908 |
| ChaGo-K-1 | 0.977 | 0.938 | 0.931 | 0.902 | 0.85 | 0.697 | 0.447 | 0.691 | 0.36 | 0.639 | 0.205 | 0.202 | 0.21 | 0.192 | 0.21 | 0.39 | 0.435 | 0.405 | 0.35 | 0.392 |
| NCI-H23 | 1.03 | 0.963 | 1.03 | 0.873 | 0.895 | 0.33 | 0.482 | 0.555 | 0.434 | 0.462 | 0.336 | 0.313 | 0.4 | 0.223 | 0.263 | 0.294 | 0.256 | 0.295 | 0.242 | 0.264 |
| PC-3 [JPC-3] | 0.975 | 0.928 | 0.911 | 0.918 | 0.824 | 0.575 | 0.609 | 0.617 | 0.629 | 0.719 | 0.879 | 0.782 | 0.917 | 0.824 | 0.878 | 0.985 | 1.11 | 1.22 | 0.932 | 1.11 |
| NCI-H520 | 0.773 | 0.778 | 0.71 | 0.647 | 0.938 | 0.281 | 0.346 | 0.301 | 0.278 | 0.299 | 0.368 | 0.476 | 0.566 | 0.451 | 0.358 | 0.305 | 0.409 | 0.362 | 0.332 | 0.277 |
| NCI-H1666 | 0.929 | 0.905 | 0.81 | 0.767 | 0.642 | 0.326 | 0.358 | 0.351 | 0.329 | 0.3 |  | 0.495 | 0.586 | 0.58 | 0.585 | 0.736 | 0.716 | 0.724 | 0.695 | 0.73 |
| NCI-H727 |  | 0.837 | 0.785 | 0.79 | 0.71 | 0.26 | 0.287 | 0.313 | 0.343 | 0.375 | 0.691 | 0.597 | 0.69 | 0.664 | 0.548 | 0.76 | 0.774 | 0.686 | 0.819 | 0.676 |
| HARA | 0.522 | 0.952 | 0.848 | 0.769 | 0.821 | 0.343 | 0.354 | 0.367 | 0.21 | 0.374 |  | 0.352 | 0.126 | 0.0979 | 0.104 | 0.749 | 0.507 | 1.15 |  | 1.13 |
| NCI-H647 | 0.994 | 1.15 | 1.03 | 1.17 | 1.1 |  | 0.289 | 0.388 | 0.317 | 0.231 | 0.212 | 0.209 | 0.394 | 0.261 | 0.232 | 0.572 | 0.408 | 0.789 | 0.596 | 0.642 |
| NCI-H1650 | 1.13 | 1.13 | 1.04 | 1.22 | 1.13 | 0.536 | 0.517 | 0.621 | 0.419 | 0.208 | 0.346 | 0.329 | 0.297 | 0.326 | 0.23 | 0.675 | 0.711 | 0.751 | 0.614 | 0.884 |
| NCI-H2347 | 0.926 | 0.721 | 0.855 | 0.994 | 0.842 | 0.583 | 0.685 | 0.434 | 0.665 | 0.578 | 0.379 | 0.457 | 0.536 | 0.563 | 0.394 | 0.507 | 0.591 | 0.597 | 0.621 | 0.53 |
| LCLC-97TM1 | 0.966 | 0.906 | 0.841 | 1.02 | 0.929 |  |  | 0.282 | 0.207 | 0.198 |  | 0.38 | 0.261 | 0.247 | 0.286 | 0.402 | 0.396 | 0.406 | 0.473 | 0.427 |
| EPLC-272H | 0.657 | 0.711 | 0.623 | 0.597 | 0.723 | 0.265 |  | 0.292 |  | 0.344 | 0.342 | 0.352 | 0.361 | 0.357 | 0.244 | 0.927 |  | 0.866 | 0.655 | 0.768 |
| NCI-H1975 | 0.687 | 0.704 | 0.837 | 0.617 | 0.633 | 0.229 | 0.216 | 0.188 | 0.199 | 0.191 | 0.764 | 0.609 | 0.609 |  | 0.263 | 0.79 | 0.727 | 0.78 | 0.642 | 0.839 |
| NCI-H3122 | 0.885 | 0.967 | 0.984 | 0.971 | 1.01 | 0.648 | 0.632 | 0.667 | 0.727 | 0.83 |  | 0.502 |  | 0.387 | 0.417 | 0.64 | 0.604 | 0.703 | 0.589 | 0.615 |
| NCI-H441 | 0.754 | 0.791 | 1.12 | 0.857 | 0.842 | 0.44 | 0.529 | 0.476 | 0.489 | 0.543 | 0.67 | 0.571 | 0.637 | 0.7 | 0.473 | 0.53 | 0.403 | 0.602 | 0.586 | 0.553 |
| NCI-H358 | 0.699 | 0.797 | 0.671 | 0.934 | 0.566 | 0.289 | 0.345 | 0.307 | 0.381 | 0.38 | 0.118 | 0.0987 | 0.114 | 0.113 | 0.104 | 0.549 | 0.621 | 0.603 | 0.604 | 0.607 |
| NCI-H1395 | 0.859 | 0.918 | 0.933 | 0.958 | 1 | 0.569 | 0.602 | 0.531 | 0.627 | 0.697 | 0.713 | 0.678 | 0.828 | 0.782 | 0.624 | 0.473 | 0.465 | 0.471 | 0.422 | 0.432 |
| SK-MES-1 | 0.687 | 0.78 | 0.751 | 1.04 | 0.8 | 0.275 | 0.276 | 0.341 | 0.358 | 0.346 | 1.02 | 0.907 | 0.925 | 0.677 | 0.81 | 0.775 | 0.761 | 0.798 | 0.629 | 0.653 |
| PC-14 | 0.875 | 0.891 | 0.889 | 0.959 | 0.928 | 0.719 | 0.666 | 0.634 | 0.752 | 0.598 | 0.5 | 0.563 | 0.512 | 0.482 | 0.478 | 0.277 | 0.256 | 0.249 | 0.232 | 0.204 |
| CAL-12T | 1.2 | 1.08 | 1.04 | 1.09 | 0.899 | 0.286 |  | 0.557 | 0.261 | 0.388 | 0.303 | 0.282 | 0.307 | 0.192 | 0.234 | 0.716 | 0.696 | 0.688 | 0.712 | 0.708 |

— the supplement of paper PMC10307832
